According to PubChem BioAssay AID248 (DTP/NCI, 2004):
Toxic doses and inconclusive results are not listed. Rule as the data show it: active = T/C of 150% or more; inactive = T/C below 125%.

Tested on: L1210 leukemia ip in BDF1 mice, survival T/C
Test: NCI In Vivo Anticancer Drug Screen. Data for tumor model L1210 Leukemia (intraperitoneal) in B6D2F1 (BDF1) mice
Conditions: endpoint: mean survival time, higher = longer survival
How it was run: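 Read-out is survival time, reported as the treated-group measurement over the vehicle-control measurement.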

[1] = dose: 12.5 mg/kg/injection, schedule: Q01DX009 (ip), vehicle: saline
[2] = dose: 25.0 mg/kg/injection, schedule: Q01DX009 (ip), vehicle: saline
[3] = dose: 50.0 mg/kg/injection, schedule: Q01DX009 (ip), vehicle: saline
[4] = dose: 100.0 mg/kg/injection, schedule: Q01DX009 (ip), vehicle: saline
[5] = dose: 200.0 mg/kg/injection, schedule: Q01DX009 (ip), vehicle: saline
[6] = dose: 100.0 mg/kg/injection, schedule: Q04DX002 (ip), vehicle: saline with Tween-80
[7] = dose: 100.0 mg/kg/injection, schedule: Q04DX003 (ip), vehicle: saline
[8] = dose: 100.0 mg/kg/injection, schedule: Q01DX009 (ip), vehicle: Klucel (hydroxypropylcellulose) (HPC)
[9] = dose: 200.0 mg/kg/injection, schedule: Q01DX009 (ip), vehicle: Klucel (hydroxypropylcellulose) (HPC)
[10] = dose: 400.0 mg/kg/injection, schedule: Q01DX009 (ip), vehicle: Klucel (hydroxypropylcellulose) (HPC)

Measured: T/C

C=CCOc1ccnc(SC)n1
inactive: dose: 75.0 mg/kg/injection, schedule: Q01DX009 (ip), vehicle: Klucel (hydroxypropylcellulose) (HPC) 98 % of control | dose: 150.0 mg/kg/injection, schedule: Q01DX009 (ip), vehicle: Klucel (hydroxypropylcellulose) (HPC) 103 % of control | dose: 300.0 mg/kg/injection, schedule: Q01DX009 (ip), vehicle: Klucel (hydroxypropylcellulose) (HPC) 90 % of control

C[P+]1(C)CC2OC23CCCCC31 (stereo not given)
inactive: [1] 98 % of control | [2] 93 % of control | [3] 94 % of control | [4] 96 % of control

Cc1cccc[n+]1CC(=O)c1ccc(-c2ccc(C(=O)C[n+]3ccccc3)cc2)cc1
inactive: dose: 0.04 mg/kg/injection, schedule: Q04DX003 (ip), vehicle: saline 102 % of control | dose: 0.08 mg/kg/injection, schedule: Q04DX003 (ip), vehicle: saline 104 % of control | dose: 0.15 mg/kg/injection, schedule: Q04DX003 (ip), vehicle: saline 97 % of control

Cc1ccc(S(=O)(=O)NC(c2ccccc2)(c2ccccc2)c2ccc([N+](=O)[O-])cc2)cc1
inactive: [4] 100 % of control | [5] 103 % of control | dose: 400.0 mg/kg/injection, schedule: Q01DX009 (ip), vehicle: saline 101 % of control

CC(=O)N(C)c1ccc(NC(=O)Cc2ccccc2)cc1
inactive: dose: 100.0 mg/kg/injection, schedule: Q01DX009 (ip), vehicle: saline with Tween-80 96 % of control | dose: 200.0 mg/kg/injection, schedule: Q01DX009 (ip), vehicle: saline with Tween-80 102 % of control | dose: 400.0 mg/kg/injection, schedule: Q01DX009 (ip), vehicle: saline with Tween-80 95 % of control

CCP(=O)(CCP(=O)(c1ccccc1)c1ccccc1)c1ccccc1 (stereo not given)
inactive: dose: 25.0 mg/kg/injection, schedule: Q04DX002 (ip), vehicle: saline with Tween-80 97 % of control | dose: 50.0 mg/kg/injection, schedule: Q04DX002 (ip), vehicle: saline with Tween-80 103 % of control | [6] 106 % of control

Nc1ccc(CCCCc2ccccc2)cc1Cl
inactive: dose: 100.0 mg/kg/injection, schedule: Q04DX003 (ip), vehicle: saline with Tween-80 100 % of control | dose: 200.0 mg/kg/injection, schedule: Q04DX003 (ip), vehicle: saline with Tween-80 100 % of control

CN(C)c1ccc(/C=N\NC(=O)CCCC(=O)N/N=C/c2ccc(N(C)C)cc2)cc1
inactive: dose: 50.0 mg/kg/injection, schedule: Q01DX001 (ip), vehicle: saline 93 % of control | dose: 100.0 mg/kg/injection, schedule: Q01DX001 (ip), vehicle: saline 96 % of control | dose: 200.0 mg/kg/injection, schedule: Q01DX001 (ip), vehicle: saline 98 % of control | dose: 400.0 mg/kg/injection, schedule: Q01DX001 (ip), vehicle: saline 93 % of control

O=C1C=C(Nc2ccc([N+](=O)[O-])cc2)C(=O)c2ccccc21
inactive: dose: 75.0 mg/kg/injection, schedule: Q01DX001 (ip), vehicle: carboxymethylcellulose (CMC) 87 % of control | dose: 300.0 mg/kg/injection, schedule: Q01DX001 (ip), vehicle: carboxymethylcellulose (CMC) 89 % of control

CCN(CC)CCCNc1cc(OC)cc2cccnc12
inactive: dose: 10.0 mg/kg/injection, schedule: Q01DX001 (ip), vehicle: carboxymethylcellulose (CMC) 107 % of control | dose: 20.0 mg/kg/injection, schedule: Q01DX001 (ip), vehicle: carboxymethylcellulose (CMC) 101 % of control

C=CCN(CC=C)CCN1CCN(CCCN2c3ccccc3Sc3ccc(C(F)(F)F)cc32)CC1
inactive: dose: 6.25 mg/kg/injection, schedule: Q01DX009 (ip), vehicle: saline 98 % of control | dose: 6.25 mg/kg/injection, schedule: Q04DX003 (ip), vehicle: saline 109 % of control | [1] 100 % of control | dose: 12.5 mg/kg/injection, schedule: Q04DX003 (ip), vehicle: saline 91 % of control | [2] 94 % of control | dose: 25.0 mg/kg/injection, schedule: Q04DX003 (ip), vehicle: saline 112 % of control | dose: 50.0 mg/kg/injection, schedule: Q04DX003 (ip), vehicle: saline 97 % of control | dose: 56.25 mg/kg/injection, schedule: Q01DX001 (ip), vehicle: saline 102 % of control | [7] 119 % of control | dose: 112.5 mg/kg/injection, schedule: Q01DX001 (ip), vehicle: saline 114 % of control

CC1(C)C(=NC2CCCCC2)C(C)(C)C1=NC1CCCCC1
inactive: dose: 75.0 mg/kg/injection, schedule: Q01DX001 (ip), vehicle: saline 101 % of control | dose: 150.0 mg/kg/injection, schedule: Q01DX001 (ip), vehicle: saline 100 % of control | dose: 300.0 mg/kg/injection, schedule: Q01DX001 (ip), vehicle: saline 100 % of control

CC1=CC(C)(C)NC(=S)N1c1ccc(O)cc1
inactive: dose: 75.0 mg/kg/injection, schedule: Q01DX009 (ip), vehicle: saline with Tween-80 92 % of control | dose: 150.0 mg/kg/injection, schedule: Q01DX009 (ip), vehicle: saline with Tween-80 101 % of control | dose: 300.0 mg/kg/injection, schedule: Q01DX009 (ip), vehicle: saline with Tween-80 90 % of control

O=C(N/N=C/c1cccnc1)c1cccc([N+](=O)[O-])c1
inactive: [8] 89 % of control | [9] 95 % of control | [10] 101 % of control

O=C(Nc1ccc(Cl)cc1)Nc1ncc(Cl)s1
inactive: [8] 94 % of control | [9] 96 % of control | [10] 89 % of control

COc1cccc(/C(=C/c2ccc([N+](=O)[O-])cc2)C(=O)Nc2ccc(S(=O)(=O)F)cc2)c1
inactive: [8] 101 % of control | [9] 90 % of control | [10] 90 % of control

NC(N)=Nc1ccc(C(=O)Oc2ccc([N+](=O)[O-])cc2CN2CCCCC2)cc1
inactive: dose: 0.5 mg/kg/injection, schedule: Q04DX003 (ip), vehicle: water 102 % of control | dose: 1.0 mg/kg/injection, schedule: Q04DX003 (ip), vehicle: water 110 % of control | dose: 2.0 mg/kg/injection, schedule: Q04DX003 (ip), vehicle: water 96 % of control | dose: 3.12 mg/kg/injection, schedule: Q01DX009 (ip), vehicle: water 93 % of control | dose: 3.12 mg/kg/injection, schedule: Q04DX003 (ip), vehicle: water 105 % of control | dose: 4.0 mg/kg/injection, schedule: Q04DX003 (ip), vehicle: water 102 % of control | dose: 6.25 mg/kg/injection, schedule: Q01DX009 (ip), vehicle: water 96 % of control | dose: 12.5 mg/kg/injection, schedule: Q01DX009 (ip), vehicle: water 101 % of control | dose: 12.5 mg/kg/injection, schedule: Q04DX003 (ip), vehicle: water 108 % of control

O=C1/C(=C/c2ccccc2)CCC/C1=C\c1ccccc1
inactive: [6] 92 % of control | dose: 200.0 mg/kg/injection, schedule: Q04DX002 (ip), vehicle: saline with Tween-80 92 % of control | dose: 400.0 mg/kg/injection, schedule: Q04DX002 (ip), vehicle: saline with Tween-80 95 % of control

O=C(O)CCCCCCCCC(=O)c1cc(O)ccc1O
inactive: dose: 100.0 mg/kg/injection, schedule: Q01DX001 (ip), vehicle: Klucel (hydroxypropylcellulose) (HPC) 94 % of control | dose: 200.0 mg/kg/injection, schedule: Q01DX001 (ip), vehicle: Klucel (hydroxypropylcellulose) (HPC) 94 % of control | dose: 400.0 mg/kg/injection, schedule: Q01DX001 (ip), vehicle: Klucel (hydroxypropylcellulose) (HPC) 106 % of control

NC1=NC(c2ccc(Cl)cc2)N(c2ccc(S(=O)(=O)Nc3ncccn3)cc2)C(N)=N1 (stereo not given)
inactive: [7] 103 % of control | dose: 200.0 mg/kg/injection, schedule: Q04DX003 (ip), vehicle: saline 96 % of control | dose: 400.0 mg/kg/injection, schedule: Q04DX003 (ip), vehicle: saline 100 % of control

O=[N+]([O-])C=C([SH2+])[SH2+].O=[N+]([O-])C=C([SH2+])[SH2+].[Co+3].c1ccc(C[P+](c2ccccc2)(c2ccccc2)c2ccccc2)cc1
inactive: dose: 75.0 mg/kg/injection, schedule: Q04DX003 (ip), vehicle: saline 93 % of control | dose: 150.0 mg/kg/injection, schedule: Q04DX003 (ip), vehicle: saline 93 % of control

C1CCCN(/N=N/N2CCCCCC2)CC1
inactive: dose: 100.0 mg/kg/injection, schedule: Q01DX001 (ip), vehicle: saline with Tween-80 100 % of control | dose: 200.0 mg/kg/injection, schedule: Q01DX001 (ip), vehicle: saline with Tween-80 92 % of control | dose: 400.0 mg/kg/injection, schedule: Q01DX001 (ip), vehicle: saline with Tween-80 100 % of control

c1ccc2cc3cc4cc5ccccc5cc4cc3cc2c1
inactive: [3] 97 % of control | [4] 101 % of control | [5] 101 % of control
